According to PubChem BioAssay (NCI):
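Briefly, cells in 96-well plates were exposed to five compound concentrations for 48 h, and endpoints were estimated by linear interpolation. TGI: concentration producing complete growth inhibition.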 Where a SMILES comes first, the peptide text is derived from it. [ ]: non-standard residue; d: D form. The star is where a group is joined. ξ: configuration not given here. Propanoyl(3-(4-MeO-Ph)) = COc1ccc(CCC(=O)*)cc1; Thr(3ξ) = CC(O)[C@H](N)C(=O)O; dNMeL = CN[C@H](CC(C)C)C(=O)O; ξLac = CC(O)C(=O)O

Columns and labels:
Experiment in all cases: growth of human tumour cells (NCI), 48 h
HL-60(TB) leukemia = system: HL-60(TB) leukemia
SF-268 CNS = system: SF-268 CNS
SR leukemia = system: SR leukemia
KM12 colon = system: KM12 colon
ACHN renal = system: ACHN renal
SK-MEL-28 melanoma = system: SK-MEL-28 melanoma
UACC-62 melanoma = system: UACC-62 melanoma
SK-MEL-5 melanoma = system: SK-MEL-5 melanoma
OVCAR-8 ovarian = system: OVCAR-8 ovarian
NCI-H522 lung = system: NCI-H522 lung

`N#Cc1ccc(Nc2cnc3ccc(N)cc3n2)cc1` was tested, and the TGI (HL-60(TB) leukemia) was greater than 100 µM, the TGI (SF-268 CNS) was greater than 100 µM and the TGI (SR leukemia) was greater than 100 µM. The TGI (KM12 colon) was greater than 100 µM, the TGI (ACHN renal) was greater than 100 µM and the TGI (SK-MEL-28 melanoma) was greater than 100 µM. It also gave a TGI (UACC-62 melanoma) greater than 100 µM, a TGI (SK-MEL-5 melanoma) greater than 100 µM and a TGI (OVCAR-8 ovarian) greater than 100 µM. It also gave a TGI (NCI-H522 lung) greater than 100 µM.
`CCCCNC(=S)c1ccc(OC(=O)Nc2ccc(Cl)cc2)cc1` showed a TGI (HL-60(TB) leukemia) greater than 100 µM, a TGI (SF-268 CNS) greater than 100 µM and a TGI (SR leukemia) greater than 100 µM. It also gave a TGI (KM12 colon) greater than 100 µM, a TGI (ACHN renal) greater than 100 µM and a TGI (SK-MEL-28 melanoma) greater than 100 µM. For the same compound, the TGI (UACC-62 melanoma) was 93.6 µM, the TGI (SK-MEL-5 melanoma) was greater than 100 µM and the TGI (OVCAR-8 ovarian) was greater than 100 µM. The TGI (NCI-H522 lung) was greater than 100 µM.
`CN(C)CCNC(=O)c1cccc2[nH]c(-c3ccncc3)nc12` gave a TGI (HL-60(TB) leukemia) of 4.06 µM, a TGI (SF-268 CNS) of 47.4 µM and a TGI (SR leukemia) greater than 100 µM. The TGI (KM12 colon) was greater than 35.7 µM, the TGI (ACHN renal) was 28.4 µM and the TGI (SK-MEL-28 melanoma) was 3.93 µM. For the same compound, the TGI (UACC-62 melanoma) was 10.8 µM, the TGI (SK-MEL-5 melanoma) was 7.27 µM and the TGI (OVCAR-8 ovarian) was greater than 40.2 µM. For the same compound, the TGI (NCI-H522 lung) was 3.97 µM.
`Cc1[nH]c(=O)nc2nc3ccc(Cl)cc3c(NC(C)(CO)CO)c12` was tested, and the TGI (HL-60(TB) leukemia) was greater than 100 µM, the TGI (SF-268 CNS) was greater than 100 µM and the TGI (SR leukemia) was greater than 100 µM. The TGI (KM12 colon) was greater than 100 µM, the TGI (ACHN renal) was greater than 100 µM and the TGI (SK-MEL-28 melanoma) was greater than 100 µM. It also gave a TGI (UACC-62 melanoma) greater than 100 µM, a TGI (SK-MEL-5 melanoma) greater than 100 µM and a TGI (OVCAR-8 ovarian) greater than 100 µM. The TGI (NCI-H522 lung) was greater than 67.9 µM.
Compound `CC(=O)Nc1ccc(-c2nnc(SCC(=O)Nc3cccc([N+](=O)[O-])c3)o2)cc1` has a TGI (HL-60(TB) leukemia) of 58.2 µM, a TGI (SF-268 CNS) of 31.7 µM and a TGI (SR leukemia) of 89.2 µM. It also gave a TGI (KM12 colon) of 39.4 µM, a TGI (ACHN renal) of 43.7 µM and a TGI (SK-MEL-28 melanoma) of 33.3 µM. It also gave a TGI (UACC-62 melanoma) of 23.7 µM, a TGI (SK-MEL-5 melanoma) of 27.1 µM and a TGI (OVCAR-8 ovarian) of 33.4 µM. For the same compound, the TGI (NCI-H522 lung) was 22.4 µM.
Work on `CSC1(SC)N2Cc3ccccc3N=C2C1(c1ccccc1)c1ccccc1` yielded a TGI (HL-60(TB) leukemia) greater than 53.1 µM, a TGI (SF-268 CNS) greater than 100 µM and a TGI (SR leukemia) of 9.36 µM. For the same compound, the TGI (KM12 colon) was greater than 35.6 µM, the TGI (ACHN renal) was greater than 100 µM and the TGI (SK-MEL-28 melanoma) was greater than 59.5 µM. For the same compound, the TGI (UACC-62 melanoma) was greater than 55.3 µM, the TGI (SK-MEL-5 melanoma) was 28.8 µM and the TGI (OVCAR-8 ovarian) was greater than 79.6 µM. The TGI (NCI-H522 lung) was 29.4 µM.
With `CN(C)CCCNc1cnc2cc3ccccc3cc2n1` the TGI (HL-60(TB) leukemia) was 68.3 µM, the TGI (SF-268 CNS) was 77.1 µM and the TGI (SR leukemia) was greater than 100 µM. The TGI (KM12 colon) was 47.4 µM, the TGI (ACHN renal) was greater than 100 µM and the TGI (SK-MEL-28 melanoma) was 81.5 µM. For the same compound, the TGI (UACC-62 melanoma) was 30 µM, the TGI (SK-MEL-5 melanoma) was 45 µM and the TGI (OVCAR-8 ovarian) was 59.4 µM. The TGI (NCI-H522 lung) was 55.5 µM.
Work on `COC(=O)[C@@H](NC(=O)[C@@H](CC(C)C)N(C)C(=O)[C@@H]1CCCN1C(=O)C(C)O)C(C)OC(=O)CCc1ccc(OC)cc1` (stereo not given in full) (H-[ξLac]P[dNMeL][Thr(3ξ)](Propanoyl(3-(4-MeO-Ph)))-OMe) yielded a TGI (HL-60(TB) leukemia) greater than 100 µM, a TGI (SF-268 CNS) greater than 100 µM and a TGI (SR leukemia) greater than 100 µM. The TGI (KM12 colon) was greater than 100 µM, the TGI (ACHN renal) was greater than 100 µM and the TGI (SK-MEL-28 melanoma) was greater than 100 µM. The TGI (UACC-62 melanoma) was greater than 100 µM, the TGI (SK-MEL-5 melanoma) was greater than 100 µM and the TGI (OVCAR-8 ovarian) was greater than 100 µM. The TGI (NCI-H522 lung) was greater than 100 µM.
For `COC12OC3CC4(C)C(=CC3OC(OC(C)C1O)C2O)CCC1C4CCC2(C)C(c3ccc(=O)oc3)CCC12O` (stereo not given), the TGI (HL-60(TB) leukemia) was 0.00215 µM, the TGI (SF-268 CNS) was 0.00157 µM and the TGI (SR leukemia) was 0.00291 µM. The TGI (KM12 colon) was 0.00739 µM, the TGI (ACHN renal) was 0.00449 µM and the TGI (SK-MEL-28 melanoma) was 0.0434 µM. It also gave a TGI (UACC-62 melanoma) of 0.00472 µM, a TGI (SK-MEL-5 melanoma) of 0.00171 µM and a TGI (OVCAR-8 ovarian) of 0.00318 µM. For the same compound, the TGI (NCI-H522 lung) was less than 0.001 µM.
With `COc1cccc2c1-c1c(OC)cccc1SS2` the TGI (HL-60(TB) leukemia) was 7.35 µM, the TGI (SF-268 CNS) was 80 µM and the TGI (SR leukemia) was 46.4 µM. The TGI (KM12 colon) was greater than 100 µM, the TGI (ACHN renal) was greater than 100 µM and the TGI (SK-MEL-28 melanoma) was 79.4 µM. It also gave a TGI (UACC-62 melanoma) of 92.5 µM, a TGI (SK-MEL-5 melanoma) of 26.5 µM and a TGI (OVCAR-8 ovarian) of 72.6 µM. For the same compound, the TGI (NCI-H522 lung) was 64.5 µM.
`COC(=O)C(Cc1ccccc1)NC(=O)c1ccc(CNC(=S)NCc2cccc(CNC(=S)NCc3ccccc3)c2)cc1` (stereo not given) showed a TGI (HL-60(TB) leukemia) greater than 62.5 µM, a TGI (SF-268 CNS) greater than 62.5 µM and a TGI (SR leukemia) greater than 62.5 µM. For the same compound, the TGI (KM12 colon) was greater than 62.5 µM, the TGI (ACHN renal) was greater than 62.5 µM and the TGI (SK-MEL-28 melanoma) was greater than 62.5 µM. It also gave a TGI (UACC-62 melanoma) greater than 62.5 µM, a TGI (SK-MEL-5 melanoma) greater than 62.5 µM and a TGI (OVCAR-8 ovarian) greater than 62.5 µM. For the same compound, the TGI (NCI-H522 lung) was greater than 62.5 µM.
In the case of `CCCCCC(O)(CCCCC)CCCCCCCCC1=C(O)c2ccccc2C(=O)C1=O`, the TGI (HL-60(TB) leukemia) is reported as 14 µM, the TGI (SF-268 CNS) is reported as 33.7 µM and the TGI (SR leukemia) is reported as 13.9 µM. The TGI (KM12 colon) was 19.4 µM, the TGI (ACHN renal) was greater than 100 µM and the TGI (SK-MEL-28 melanoma) was greater than 46.2 µM. For the same compound, the TGI (UACC-62 melanoma) was 21.1 µM, the TGI (SK-MEL-5 melanoma) was 14.5 µM and the TGI (OVCAR-8 ovarian) was 33 µM. The TGI (NCI-H522 lung) was 67.9 µM.
With `O=C(Cn1c(=O)oc2ccc(C(=O)c3ccccc3Cl)cc21)c1ccc([N+](=O)[O-])cc1` the TGI (HL-60(TB) leukemia) was greater than 100 µM, the TGI (SF-268 CNS) was greater than 100 µM and the TGI (SR leukemia) was greater than 100 µM. It also gave a TGI (KM12 colon) of 58.1 µM, a TGI (ACHN renal) greater than 100 µM and a TGI (SK-MEL-28 melanoma) greater than 100 µM. The TGI (UACC-62 melanoma) was 40.7 µM, the TGI (SK-MEL-5 melanoma) was 40.5 µM and the TGI (OVCAR-8 ovarian) was greater than 100 µM. It also gave a TGI (NCI-H522 lung) of 39.9 µM.
Compound `COc1ccc(N2C(N)=C(C#N)C(C#N)(C#N)C2c2cccc([N+](=O)[O-])c2)cc1` (stereo not given) has a TGI (HL-60(TB) leukemia) greater than 25.7 µM, a TGI (SF-268 CNS) of 44 µM and a TGI (SR leukemia) greater than 66 µM. The TGI (KM12 colon) was 33.9 µM, the TGI (ACHN renal) was 27.4 µM and the TGI (SK-MEL-28 melanoma) was 23.6 µM. For the same compound, the TGI (UACC-62 melanoma) was 30.1 µM, the TGI (SK-MEL-5 melanoma) was 27.4 µM and the TGI (OVCAR-8 ovarian) was 32.8 µM. For the same compound, the TGI (NCI-H522 lung) was 20.7 µM.
In the case of `N#CCSc1c(-c2ccccc2)c(=O)n(-c2ccccc2)c(=S)n1-c1ccccc1`, the TGI (HL-60(TB) leukemia) is reported as greater than 100 µM, the TGI (SF-268 CNS) is reported as greater than 100 µM and the TGI (SR leukemia) is reported as greater than 100 µM. For the same compound, the TGI (KM12 colon) was greater than 100 µM, the TGI (ACHN renal) was greater than 100 µM and the TGI (SK-MEL-28 melanoma) was greater than 100 µM. For the same compound, the TGI (UACC-62 melanoma) was greater than 100 µM, the TGI (SK-MEL-5 melanoma) was greater than 100 µM and the TGI (OVCAR-8 ovarian) was greater than 100 µM. The TGI (NCI-H522 lung) was greater than 100 µM.
In the case of `NNC(=O)CCC(NS(=O)(=O)c1ccc(Cl)cc1)C(=O)NN` (stereo not given), the TGI (HL-60(TB) leukemia) is reported as greater than 100 µM, the TGI (SF-268 CNS) is reported as greater than 100 µM and the TGI (SR leukemia) is reported as greater than 100 µM. The TGI (KM12 colon) was greater than 100 µM, the TGI (ACHN renal) was greater than 100 µM and the TGI (SK-MEL-28 melanoma) was greater than 100 µM. It also gave a TGI (UACC-62 melanoma) greater than 100 µM, a TGI (SK-MEL-5 melanoma) greater than 100 µM and a TGI (OVCAR-8 ovarian) greater than 100 µM. For the same compound, the TGI (NCI-H522 lung) was greater than 100 µM.
`NC(=O)C[C@H](NC(=O)C1(NC(=O)[C@H](Cc2ccc(CP(=O)(O)O)cc2)NC(=O)C(=O)O)CCCCC1)C(=O)NCCCc1cccc2ccccc12` gave a TGI (HL-60(TB) leukemia) greater than 10 µM, a TGI (SF-268 CNS) greater than 10 µM and a TGI (SR leukemia) of 7.86 µM. It also gave a TGI (KM12 colon) greater than 10 µM, a TGI (ACHN renal) greater than 10 µM and a TGI (SK-MEL-28 melanoma) greater than 10 µM. The TGI (UACC-62 melanoma) was greater than 10 µM, the TGI (SK-MEL-5 melanoma) was greater than 10 µM and the TGI (OVCAR-8 ovarian) was greater than 10 µM. It also gave a TGI (NCI-H522 lung) greater than 10 µM.
